Data reported in patent publication US20070043024A1, “Azacyclic compounds as inhibitors of sensory neurone specific channels” (priority 2003, published 2007).
Like-named read-outs stand apart in the source and are kept apart here.

Biological target: T1, human Nav1.8 (hNav1.8) ion channel (Homo sapiens, UniProt Q9Y5Y9)
T1 construct: expressed in transfected cells
Assay: Inhibition of human Nav1.8 stably expressed in SH-SY-5Y cells (membrane potential dye fluorescence assay)
Type: cell-based
Procedure: Inhibition of Human Nav1.8 Stably Expressed in SH-SY-5Y Cells
A SH-SY-5Y neuroblastoma cell line stably expressing the human […] (hNav1.8) ion channel was constructed. This cell line has been used to develop a medium to high throughput assay for determining the ability of test compounds to inhibit membrane depolarisation mediated via the hNav1.8 channel.
SH-SY-5Y hNav1.8 are grown in adherent monolayer culture using 50:50 Ham's F-12/EMEM tissue culture medium supplemented with 15% (v/v) foetal bovine serum; 2 mM L-glutamine, 1% NEAA and 600 μg·ml^−1 Geneticin sulphate. Cells are removed from the tissue culture flask using trypsin/EDTA and re-plated into black walled, clear bottom 96-well assay plates at 50,000 cells·well^−1 24 hours prior to assay.
On the day of assay the cell assay plates are washed to remove cell culture medium using a sodium free assay buffer (145 mM tetramethyl ammonium chloride; 2 mM calcium chloride; 0.8 mM magnesium chloride hexahydrate; 10 mM HEPES; 10 mM glucose; 5 mM potassium chloride, pH 7.4). Fluorescent membrane potential dye solution (FLIPR™ membrane potential dye, Molecular Devices Corporation), containing 10 μM of a pyrethroid to prevent channel inactivation and 250 nM tetrodotoxin (TTX) to reduce interference from TTX-sensitive sodium channels present in the cell line. Test compound, initially dissolved in dimethyl sulfoxide but further diluted in sodium free buffer, is added to achieve the final test concentration range of 100 μM-0.05 μM.
Cell plates are incubated for 30 minutes at room temperature to allow equilibration of dye and test compound. Plates are then transferred to a fluorescence plate reader for fluorescence measurement using an excitation wavelength of 530 nm whilst measuring fluorescence emission at 565 nm. Baseline fluorescence levels are first determined before the addition of a sodium containing buffer (220 mM sodium chloride; 2 mM calcium chloride; 0.8 mM magnesium chloride hexahydrate; […]; 10 mM glucose; 5 mM potassium chloride. pH 7.4) to cause membrane depolarisation in those cells where channel block has not been effected (final sodium concentration=72.5 mM). Membrane depolarisation is registered by an increase in fluorescence emission at 565 nm.
The change in fluorescence seen in each test well upon the addition of sodium containing buffer is calculated relative to the baseline fluorescence for that well. This figure is then used for calculating the IC50 for each test compound.

[1] = Table 2 (compound numbers of the list in the description), SH-SY-5Y hNav1.8 cells, inhibition of membrane depolarisation, FLIPR membrane potential dye, 250 nM TTX, test concentration range 100 μM-0.05 μM, read-out: IC50
[2] = Table 1, SH-SY-5Y hNav1.8 cells, inhibition of membrane depolarisation, FLIPR membrane potential dye, 250 nM TTX, test concentration range 100 μM-0.05 μM, read-out: IC50

T1 sequence (Q9Y5Y9 whole entry): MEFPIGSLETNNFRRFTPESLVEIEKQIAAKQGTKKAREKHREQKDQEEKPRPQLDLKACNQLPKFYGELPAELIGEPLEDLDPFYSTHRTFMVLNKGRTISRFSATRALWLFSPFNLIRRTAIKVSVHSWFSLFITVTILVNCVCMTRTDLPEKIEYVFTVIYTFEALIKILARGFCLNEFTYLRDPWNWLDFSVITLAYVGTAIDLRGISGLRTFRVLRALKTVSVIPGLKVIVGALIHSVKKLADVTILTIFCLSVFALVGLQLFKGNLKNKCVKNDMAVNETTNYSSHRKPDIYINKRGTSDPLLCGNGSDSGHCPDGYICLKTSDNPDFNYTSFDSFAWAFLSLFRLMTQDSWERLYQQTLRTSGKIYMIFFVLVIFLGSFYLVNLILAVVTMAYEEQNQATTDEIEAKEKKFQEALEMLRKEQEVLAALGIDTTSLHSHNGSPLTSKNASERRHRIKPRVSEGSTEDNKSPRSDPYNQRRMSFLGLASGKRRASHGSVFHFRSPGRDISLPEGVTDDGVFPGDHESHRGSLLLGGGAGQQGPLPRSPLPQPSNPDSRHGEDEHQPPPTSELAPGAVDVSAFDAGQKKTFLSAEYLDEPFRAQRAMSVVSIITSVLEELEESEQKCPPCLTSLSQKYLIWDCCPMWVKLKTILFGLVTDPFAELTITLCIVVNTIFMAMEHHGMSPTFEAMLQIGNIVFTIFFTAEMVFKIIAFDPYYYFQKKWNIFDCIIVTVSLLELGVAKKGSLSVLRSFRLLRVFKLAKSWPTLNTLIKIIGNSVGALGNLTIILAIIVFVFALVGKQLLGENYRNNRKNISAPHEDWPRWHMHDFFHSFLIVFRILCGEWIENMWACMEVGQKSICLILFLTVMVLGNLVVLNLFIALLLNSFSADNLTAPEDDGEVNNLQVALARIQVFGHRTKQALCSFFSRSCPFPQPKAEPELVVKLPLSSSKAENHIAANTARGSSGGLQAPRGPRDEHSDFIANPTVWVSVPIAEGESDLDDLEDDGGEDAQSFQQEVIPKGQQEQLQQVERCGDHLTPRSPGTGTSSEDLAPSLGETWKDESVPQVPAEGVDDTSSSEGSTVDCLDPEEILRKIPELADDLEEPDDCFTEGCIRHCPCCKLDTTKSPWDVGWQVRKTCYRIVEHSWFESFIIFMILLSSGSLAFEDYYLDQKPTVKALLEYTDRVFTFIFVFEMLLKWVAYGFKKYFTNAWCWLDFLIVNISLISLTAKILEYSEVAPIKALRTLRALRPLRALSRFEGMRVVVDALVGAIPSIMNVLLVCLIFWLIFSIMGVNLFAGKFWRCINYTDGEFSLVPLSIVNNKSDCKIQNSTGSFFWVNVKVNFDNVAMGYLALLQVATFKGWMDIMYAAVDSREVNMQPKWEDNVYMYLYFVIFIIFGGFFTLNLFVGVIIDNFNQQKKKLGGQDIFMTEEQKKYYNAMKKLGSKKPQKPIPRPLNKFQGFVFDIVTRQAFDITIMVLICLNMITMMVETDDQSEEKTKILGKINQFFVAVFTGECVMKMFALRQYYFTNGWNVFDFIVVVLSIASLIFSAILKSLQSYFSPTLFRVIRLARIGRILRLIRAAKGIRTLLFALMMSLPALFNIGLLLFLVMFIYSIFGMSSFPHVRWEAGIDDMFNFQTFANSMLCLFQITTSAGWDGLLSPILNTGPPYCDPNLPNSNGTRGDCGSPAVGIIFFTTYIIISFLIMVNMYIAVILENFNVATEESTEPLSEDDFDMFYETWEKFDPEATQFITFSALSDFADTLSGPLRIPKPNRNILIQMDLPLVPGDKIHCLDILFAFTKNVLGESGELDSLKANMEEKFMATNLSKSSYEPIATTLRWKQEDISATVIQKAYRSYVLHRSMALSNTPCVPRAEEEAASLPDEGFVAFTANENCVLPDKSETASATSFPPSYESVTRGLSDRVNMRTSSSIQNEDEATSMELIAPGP

| Compound | IC50 [1] [µM] | IC50 [2] [µM] | further results |
| --- | --- | --- | --- |
| COc1cccc2c1CN(CCCOC=C(c1ccccc1)c1ccccc1)CC2 [Compound 74, 2-[3-(2,2-diphenyl-vinyloxy)-propyl]-8-methoxy-1,2,3,4-tetrahydro-isoquinoline] | 1.8 | – | – |
| Oc1cccc2c1CN(CCCC(c1ccc(F)cc1)c1ccc(F)cc1)CC2 [Example 96, 2-[4,4-Bis-(4-fluoro-phenyl)-butyl]-1,2,3,4-tetrahydro-isoquinolin-8-ol] | – | 1.94 | – |
| Oc1cccc2c1CN(Cc1cc(F)ccc1F)CC2 [Example 92, 2-(2,5-Difluoro-benzyl)-1,2,3,4-tetrahydro-isoquinolin-8-ol] | – | 5.27 | – |
| COc1cccc2c1CN(CCNC(=O)N1c3ccccc3Oc3ccccc31)CC2 [Compound 164, Phenoxazine-10-carboxylic acid [2-(8-methoxy-3,4-dihydro-1H-isoquinolin-2-yl)-ethyl]-amide] | 0.71 | – | – |
| COc1cccc2c1CN(C(C)C(=O)N1c3ccccc3Oc3ccccc31)CC2 (centres unmarked) [Compound 200, 2-(8-Methoxy-3,4-dihydro-1H-isoquinolin-2-yl)-1-phenoxazin-10-yl-propan-1-one] | 1.66 | – | – |
| COc1cccc2c1CN(CCC(=O)N(Cc1ccccc1)Cc1ccccc1)CC2 [Compound 87, N,N-dibenzyl-3-(8-methoxy-3,4-dihydro-1H-isoquinolin-2-yl)-propionamide] | 0.49 | – | – |
| N-Benzhydryl-2-(8-methoxy-3,4-dihydro-1H-isoquinolin-2-yl)-N-phenyl-acetamide [Example 21] | – | 1.25 | – |
| COc1cccc2c1CN(CC(=O)NCC(c1ccccc1)c1ccccc1)CC2 [Example 61, N-(2,2-Diphenyl-ethyl)-2-(8-methoxy-3,4-dihydro-1H-isoquinolin-2-yl)-acetamide] | – | 2.56 | – |
| O=C(CN1CCc2cccc(O)c2C1)Nc1ccccc1Oc1ccccc1 [Compound 185, 2-(8-Hydroxy-3,4-dihydro-1H-isoquinolin-2-yl)-N-(2-phenoxy-phenyl)-acetamide] | 1.85 | – | – |
| CCOc1cccc2c1CN(CC(=O)NCCCC(c1ccccc1)c1ccccc1)CC2 [Compound 92, N-(4,4-Diphenyl-butyl)-2-(8-ethoxy-3,4-dihydro-1H-isoquinolin-2-yl)-acetamide] | 4.82 | – | – |
| COc1cccc2c1CN(CCNC(=O)NC(c1ccccc1)c1ccccc1)CC2 [Compound 135, 1-Benzhydryl-3-[2-(8-methoxy-3,4-dihydro-1H-isoquinolin-2-yl)-ethyl]-urea] | 0.38 | – | – |
| O=C(CN1CCc2cccc(O)c2C1)N1c2ccccc2Sc2ccc(Cl)cc21 [Compound 141, 1-(2-Chloro-phenothiazin-10-yl)-2-(8-hydroxy-3,4-dihydro-1H-isoquinolin-2-yl)-ethanone] | 1.85 | – | – |
| COc1cccc2c1CN(CC(=O)NN(c1ccccc1)c1ccccc1)CC2 [Compound 168, (8-Methoxy-3,4-dihydro-1H-isoquinolin-2-yl)-acetic acid N′,N′-diphenyl-hydrazide] | 2.01 | – | – |
| CCOC(=O)C1CN(C(=O)CN2CCc3cccc(OC)c3C2)c2ccccc2O1 (centres unmarked) [Compound 171, 4-[2-(8-Methoxy-3,4-dihydro-1H-isoquinolin-2-yl)-acetyl]-3,4-dihydro-2H-benzo[1,4]oxazine-2-carboxylic acid ethyl ester] | 1.75 | – | – |
| O=C(CNCC(c1ccccc1)c1ccccc1)N1CCc2ccccc2C1 [Example 32, 1-(3,4-Dihydro-1-isoquinolin-2-yl)-2-(2,2-diphenyl-ethylamino)-ethanone] | – | 0.23 | – |
| Oc1cccc2c1CN(Cc1cc(F)cc(F)c1)CC2 [Example 93, 2-(3,5-Difluoro-benzyl)-1,2,3,4-tetrahydro-isoquinolin-8-ol] | – | 4.72 | – |
| COc1ccc(N(C(=O)CN2CCc3cccc(O)c3C2)c2ccc(OC)cc2)cc1 [Compound 183, 2-(8-Hydroxy-3,4-dihydro-1H-isoquinolin-2-yl)-N,N-bis-(4-methoxy-phenyl)-acetamide] | 2.26 | – | – |
| O=C(CN1Cc2cccc(O)c2C1)N1c2ccccc2Oc2ccccc21 [Compound 202, 2-(4-Hydroxy-1,3-dihydro-isoindol-2-yl)-1-phenoxazin-10-yl-ethanone] | 0.68 | – | – |

| Compound | IC50 [1] [µM] | IC50 [2] [µM] | further results |
| --- | --- | --- | --- |
| O=C(CN1CCc2ccccc2C1)N(Cc1ccccc1)Cc1ccccc1 [Example 16, N,N-Dibenzyl-2-(3,4-dihydro-1H-isoquinolin-2yl)-acetamide] | – | 0.88 | – |
| COc1cccc2c1CN(CC(=O)N1c3ccccc3Oc3cnn(C)c31)CC2 [Compound 199, 2-(8-Methoxy-3,4-dihydro-1H-isoquinolin-2-yl)-1-(1-methyl-1H-4-oxa-1,2,9-triaza-cyclopenta[b]naphthalen-9-yl)-ethanone] | 8.26 | – | – |
| Nc1cccc2c1CN(CCC(=O)NCCC(c1ccccc1)c1ccccc1)CC2 [Compound 127, 3-(8-Amino-3,4-dihydro-1H-isoquinolin-2-yl)-N-(3,3-diphenyl-propyl)-propionamide] | 0.65 | – | – |
| O=C(CN1CCc2ccccc2C1)NC(c1ccc(F)cc1)c1ccc(F)cc1 [Compound 119, N-[Bis-(4-fluoro-phenyl)-methyl]-2-(3,4-dihydro-1H-isoquinolin-2-yl)-acetamide] | 1.91 | – | – |
| COc1cccc2c1CN(CC(=O)NC(c1ccccc1)c1ccccn1)CC2 (centres unmarked) [Example 69, 2-(8-methoxy-3,4-dihydro-1H-isoquinolin-2-yl)-N-(phenyl-pyridin-2-yl-methyl)-acetamide] | – | 8.96 | – |
| O=C(CN1CCc2cccc(O)c2C1)NCCC(c1ccccc1)c1ccccc1 [Example 27, N-(3,3-Diphenyl-propyl)-2-(8-hydroxy-3,4-dihydro-1H-isoquinolin-2-yl)-acetamide] | – | – | IC50 (IC50, Table 1, SH-SY-5Y hNav1.8 cells, inhibition of membrane depolarisation, FLIPR membrane potential dye, 250 nM TTX, test concentration range 100 μM-0.05 μM): 1.02 µM |
| O=C(CN(Cc1ccccc1)Cc1ccccc1)N1CCc2ccccc2C1 [Example 35, 2-Dibenzylamino-1-(3,4-dihydro-1H-isoquinolin-2-yl)-ethanone] | – | 4.86 | – |
| CS(=O)(=O)N(c1cccc2c1CN(CC(=O)N1c3ccccc3Oc3ccccc31)CC2)S(C)(=O)=O [Compound 197, N-Methanesulfonyl-N-[2-(2-oxo-2-phenoxazin-10-yl-ethyl)-1,2,3,4-tetrahydro-isoquinolin-8-yl]-methanesulfonamide] | 3.83 | – | – |
| O=C(CN1CCc2cccc(O)c2C1)N(Cc1ccccc1)Cc1ccccc1 [Example 23, N,N-Dibenzyl-2-(8-hydroxy-3,3-dihydro-1H-isoquinolin-2-yl)-acetamide] | – | 0.26 | – |
| COc1cccc2c1CN(CC(=O)NCC[S+]([O-])C(c1ccccc1)c1ccccc1)CC2 (centres unmarked) [Compound 103, N-[2-(Diphenyl-methanesulfinyl)-ethyl]-2-(8-methoxy-3,4-dihydro-1H-isoquinolin-2-yl)-acetamide] | – | – | IC50: 2.25 µM |
| CC(=O)Nc1cccc2c1CN(CC(=O)NCCCC(c1ccccc1)c1ccccc1)CC2 [Compound 112, 2-(8-Acetylamino-3,4-dihydro-1H-isoquinolin-2-yl)-N-(4,4-diphenyl-butyl)-acetamide] | 0.79 | – | – |
| COc1ccc2c(c1)CCCN(CC(=O)N(Cc1ccccc1)Cc1ccccc1)C2 [Compound 86, N,N-dibenzyl-2-(7-methoxy-1,3,4,5-tetrahydro-benzo[c]azepin-2-yl)-acetamide] | 0.49 | – | – |
| O=C(CN1CCc2cccnc2C1)N1c2ccccc2Oc2ccccc21 [Compound 173, 2-(5,8-Dihydro-6H-[1,7]naphthyridin-7-yl)-1-phenoxazin-10-yl-ethanone] | 5.64 | – | – |
| COc1cccc2c1CN(CC(=O)N1c3ccccc3OCC1C(C)(C)C)CC2 (centres unmarked) [Compound 206, 1-(3-tert-Butyl-2,3-dihydro-benzo[1,4]oxazin-4-yl)-2-(8-methoxy-3,4-dihydro-1H-isoquinolin-2-yl)-ethanone] | 1.62 | – | – |
| Oc1cccc2c1CN(CC(c1ccccc1)c1ccccc1)CC2 [Example 11, 2-(2,2-Diphenyl-ethyl)-1,2,3,4-tetrahydro-isoquinoline-8-ol] | – | 0.6 | – |
| O=C(CN1CCc2ccccc2C1)NCCC(c1ccccc1)c1ccccc1 [Example 18, 2-(3,4-Dihydro-1H-isoquinolin-2yl)-N-(3,3-diphenyl-propyl)-acetamide] | – | 0.68 | – |
| Nc1cccc2c1CN(CC(=O)N(Cc1ccccc1)Cc1ccccc1)C2 [Compound 101, 2-(4-Amino-1,3-dihydro-isoindol-2-yl)-N,N-dibenzyl-acetamide] | 4.26 | – | – |
